Where only a bound is given, the exact number is not on record here.

In one test the test system is PC3 cells. The test can be described thus: Internalization and efflux assay in PC3 cells (125I-BBN, 177Lu complexes). Format: cell-based, human. The conditions noted are these: 37° C., 125I-BBN and Lu-177 complexes; for Efflux (2 h): after 40 min loading.
Test [1] has as its system PC3 tumor-bearing nude mouse model. The test can be described thus: Radiotherapy efficacy studies (short and long term survival). Format: in vivo. The note with it: 177Lu labeled; for survival, Short Term Efficacy Study: 30 mCi/kg i.v. or s.c., versus untreated control and DO3A-monoamide-Aoc-QWAVGHLM-NH2 control; for survival, Long Term Efficacy Study: 30 mCi/kg, up to 120 days, n=46, p<0.0001 versus controls. On the procedure:
Radiotherapy studies were performed using the PC3 tumor-bearing nude mouse model. […] (n=12 for each treatment group for up to days, and n=36 for the pooled untreated control group for up to 31 days). […] The subjects were housed in a barrier environment for the duration of the study. Body weight and tumor size (by caliper measurement) were collected on each subject 3 times per week for the duration of the study. Criteria for early termination included: death; loss of total body weight (TBW) equal to or greater than 20%; tumor size equal to or greater than 2 cm^3.

For a further test, the target named is T1, NMB-R (Rattus norvegicus, UniProt P24053).
T1 construct: C6, an NMB-R expressing rodent glioblastoma cell line; host or cells: C6 glioma cells (intact, plated)
T1 sequence (P24053 1-390): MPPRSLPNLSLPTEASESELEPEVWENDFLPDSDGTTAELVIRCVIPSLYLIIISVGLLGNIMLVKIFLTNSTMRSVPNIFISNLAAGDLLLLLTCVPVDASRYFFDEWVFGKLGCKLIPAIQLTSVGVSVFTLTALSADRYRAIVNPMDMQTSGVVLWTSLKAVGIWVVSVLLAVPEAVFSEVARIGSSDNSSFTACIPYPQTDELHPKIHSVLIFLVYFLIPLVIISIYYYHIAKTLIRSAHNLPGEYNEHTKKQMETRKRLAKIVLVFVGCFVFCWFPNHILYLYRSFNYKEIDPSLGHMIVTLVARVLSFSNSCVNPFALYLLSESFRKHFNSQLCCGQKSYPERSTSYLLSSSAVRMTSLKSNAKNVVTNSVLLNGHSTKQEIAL
The test can be described thus: Competition with 125I-NMB for NMB-R in C6 cells. The conditions noted are these: cut off 10× the IC50 of [Tyr4]-BBN; for GRP-R and NMB-R (binds both with similar affinity): class from IC50 with 125I-NMB on C6 cells; for receptor subtype preference (GRP-R versus NMB-R): from IC50 with 125I-NMB on C6 cells and 125I-BBN on PC3 cells. Format: binding, rodent.

In test [2] the test system is GRP receptor binding in T47D human breast cancer cells. The test can be described thus: Effect of drug treatment on GRP receptor binding (177Lu-AMBA) and proliferation in T-47D cells. The class given is cell-based. The note with it: for change in 177Lu-AMBA binding (GRP receptor specific signal per cell), T47D: Table 25, range 0.001-0.1 μM, vs untreated controls; for decrease in 177Lu-AMBA binding (GRP receptor specific signal per cell) / increase in 177Lu-AMBA binding (GRP receptor specific signal per cell): relative to untreated control; for decrease in 177Lu-AMBA binding (GRP receptor specific signal per cell): drug 0.1-1.0 μM (4-OH Tamoxifen 0.001-0.1 μM); for increase in 177Lu-AMBA binding (GRP receptor specific signal per cell): drug 0.1-1.0 μM (gefitinib 0.1-10 μM); for GRP receptor specific signal per cell (177Lu-AMBA binding) versus untreated controls, in words: drug 0.1-1.0 μM (β2-estradiol 1 nM). An excerpt:
T-47D breast cancer cells (human metastatic mammary gland ductal adenocarcinoma isolated from pleural effusion, ER+, PR+) were obtained from the American Type Culture Collection.

Test [3] concerns GRP receptor binding in PC-3 prostate cancer cells. The test is described as follows: Effect of drug treatment on GRP receptor binding (177Lu-AMBA) and proliferation in PC-3 cells. The conditions noted are these: for change in 177Lu-AMBA binding (GRP receptor specific signal per cell), PC-3: Table 25, range 0.001-0.1 μM, vs untreated controls; for decrease in 177Lu-AMBA binding (GRP receptor specific signal per cell): drug 0.1-1.0 μM (gefitinib 0.1-10 μM); for GRP receptor specific signal per cell (177Lu-AMBA binding) versus untreated controls, in words: drug 0.1-1.0 μM (4-OH Tamoxifen 0.001-0.1 μM).
Experimental: (§1) RPMI 1640 supplemented with 20 mM HEPES, 0.1% BSA (w/v), 0.5 mM PMSF (AEBSF), bacitracin (50 mg/500 ml), pH 7.4.
(§2) Treatment: BT-474 cells were plated on Day 0 (see above); approximately 24-48 h after plating, treatment Days 1 and 2 (DT1, DT2), the medium was removed and replaced with fresh growth medium (control), or growth medium with the addition of lapatinib (0.1-1.0 μM). […] Incubations were stopped by the addition of 200 μL of ice-cold binding buffer. Plates were washed three more times with binding buffer, 140 μL of scintillation fluid was added to each well, the plates were sealed and analyzed on a Microp plate reader (Microbeta Trilux, Perkin-Elmer).
(§3) Treatment: BT-474 cells were plated on Day 0 and treated on Days 1 and 2 (DT1, DT2).

The subject of test [4] is GRP receptor binding in BT-474 human breast cancer cells. The test is described as follows: Effect of drug treatment on GRP receptor binding (177Lu-AMBA) and proliferation in BT-474 cells. The note with it: for change in 177Lu-AMBA binding (GRP receptor specific signal per cell), BT-474: Table 25, range 0.001-0.1 μM, vs untreated controls; for GRP receptor specific signal per cell (177Lu-AMBA binding) versus untreated controls, in words: drug 0.1-1.0 μM (gefitinib 0.1-10 μM); for decrease in 177Lu-AMBA binding (GRP receptor specific signal per cell): relative to untreated control, drug 0.1-1.0 μM (4-OH Tamoxifen 0.001-0.1 μM).
Experimental: Cells for binding experiments were plated on Day 0 at 5.6×10^4 cells/cm^2 in 96-well white/clear bottom microtiter plates (Falcon Optilux-I), or 96 well black/clear collagen I cellware plates (Beckton Dickinson Biocoat).
as §1, §2, §3

[5] abbreviates: PC-3, relative to untreated control.

Experimental for NMB-R: Two cell lines, C6, an NMB-R expressing rodent glioblastoma cell line and PC3, a GRP-R expressing human prostate cancer cell line, were used in this assay. The affinity of various unlabeled compounds for each receptor subtype (NMB-R and GRP-R) was determined indirectly by measuring its ability to compete with the binding of ^125I-NMB or ^125I-BBN to its corresponding receptors in C6 and PC3 cells.
Cells for the assays were plated at a concentration of 9.6×10^4/well in 48 well poly-lysine coated plates (Beckton Dickinson Biocoat). PC3 were obtained from ATCC(CRL-1435) and cultured in RPMI 1640 (ATCC) supplemented with 2 mM L-glutamine, 1.5 g/L Sodium bicarbonate, 10 mM HEPES and 10% FBS. […] PC3 cells for the assays were plated at a concentration of 2.0×10^4 cells/well in 96-well white/clear bottom plates (Falcon Optilux-I). Plates were used for the assays on day 2 of the post-plating.
RPMI 1640 (ATCC) containing 25 mM HEPES, 0.2% BSA fraction V, 1.0 mM AEBSF (CAS #3087-99-7) and 0.1% Bacitracin (CAS #1405-87-4), pH 7.4. Custom made ^125I-[Tyr°]NMB, >2.0 Ci/mole (Amersham Life Science) [^125I-NMB] and commercially available ^125I-[Tyr^4]BBN, >2.0 Ci/mole (Perkin Elmer Life Science) [^125I-BBN] were used as radioligands.
Using a 48-well plate assay system (for C6 study) competition experiments were performed using ^125I-NMB. […] Selection of compounds for the assay was based on linker subtype.
The binding parameters obtained from the studies were analyzed using a one-site competition non-linear regression analysis with GraphPad Prism. The relative affinity of various compounds for NMB-R in C6 cells were compared with those obtained using commercially available [Tyr^4]-BBN and [Tyro]-NMB. To distinguish the GRP-R preferring compounds from NMB-R plus GRP-R preferring compounds, IC50 values obtained for each compound were compared with those obtained from [Tyr^4-BBN with ^125I-NMB on C6 cells.
Experimental for PC3 cells: These studies were conducted in a 96-well plate. […] Incubations were stopped by the addition of 200 μl of ice-cold binding buffer. Plates were washed twice with binding buffer. To remove surface-bound radioligand, the cells were incubated with 0.2M acetic acid (in saline), pH 2.8 for 2 min. Plates were centrifuged and the acid wash media were collected to determine the amount of radioactivity which was not internalized. The cells were collected to determine the amount of internalized ^125I-BBN, and all samples were analyzed in the gamma counter. Data for the internalization assay was normalized by comparing counts obtained at the various time points with the counts obtained at the final time point (T=40 min).
For the efflux studies, after loading the PC3 cells with ^125I-BBN or radiolabeled compounds of the invention for 40 min at 37° C., the unbound material was filtered, and the % of internalization was determined as above. The cells were then resuspended in binding buffer at 37° C. for up to 3 h.

For the compound `CSCC[C@H](NC(=O)[C@H](CC(C)C)NC(=O)[C@H](Cc1c[nH]cn1)NC(=O)CNC(=O)[C@@H](NC(=O)[C@H](C)NC(=O)[C@H](Cc1c[nH]c2ccccc12)NC(=O)[C@H](CCC(N)=O)NC(=O)CC[C@@H](C)[C@H]1CC[C@H]2[C@@H]3CC[C@@H]4C[C@@H](NC(=O)CNC(=O)CN5CCN(CC(=O)O)CCN(CC(=O)O)CCN(CC(=O)O)CC5)CC[C@]4(C)[C@H]3C[C@H](O)[C@]12C)C(C)C)C(N)=O` [Compound L63, N-[(3β,5β,12α)-3-[[[[[4,7,10-Tris(carboxymethyl)-1,4,7,10-tetraazacyclododec-1-yl]acetyl]amino]acetyl]amino]-12-hydroxy-24-oxocholan-24-yl]-L-glutaminyl-L-tryptophyl-L-alanyl-L-valyl-glycyl-L-histidyl-L-leucyl-L-methioninamide], in the test with PC3 cells, the “Internalisation (40 minutes)” value came out at 64% and the “Efflux (2 h)” value stood at 0%. Moreover, the “survival, Short Term Efficacy Study” value in test [1] is given as “increased survival”. In addition, on NMB-R, the “GRP-R and NMB-R (binds both with similar affinity)” value was “yes”; the “receptor subtype preference (GRP-R versus NMB-R)” value was “dual affinity for both GRP-R and NMB-R”.
Regarding `CSCC[C@H](NC(=O)[C@H](CC(C)C)NC(=O)[C@H](Cc1c[nH]cn1)NC(=O)CNC(=O)[C@@H](NC(=O)[C@H](C)NC(=O)[C@H](Cc1c[nH]c2ccccc12)NC(=O)[C@H](CCC(N)=O)NC(=O)CC[C@@H](C)[C@H]1CC[C@H]2[C@@H]3[C@H](O)C[C@@H]4C[C@@H](NC(=O)CNC(=O)CN5CCN(CC(=O)O)CCN(CC(=O)O)CCN(CC(=O)O)CC5)CC[C@]4(C)[C@H]3C[C@H](O)[C@]12C)C(C)C)C(N)=O` [Compound L64, N-[(3β,5β,7α,12α)-3-[[[[[4,7,10-Tris(carboxymethyl)-1,4,7,10-tetraazacyclododec-1-yl]acetyl]amino]acetyl]amino]-7,12-dihydroxy-24-oxocholan-24-yl]-L-glutaminyl-L-tryptophyl-L-alanyl-L-valyl-glycyl-L-histidyl-L-leucyl-L-methioninamide], in the test on PC3 cells, the “Internalisation (40 minutes)” value is given as 69% and the “Efflux (2 h)” value worked out at 20%. Besides, in test [1], the “survival, Short Term Efficacy Study” value was “increased survival” and the “survival, Long Term Efficacy Study” value is “significantly increased survival”. In addition, on NMB-R, the “GRP-R and NMB-R (binds both with similar affinity)” value is “yes”; the “receptor subtype preference (GRP-R versus NMB-R)” value was “dual affinity for both GRP-R and NMB-R”.
Regarding `CC/C(=C(\c1ccc(O)cc1)c1ccc(OCCN(C)C)cc1)c1ccccc1` [Compounds 4-OH-Tamoxifen], in test [2], the “change in 177Lu-AMBA binding (GRP receptor specific signal per cell), T47D” value is on record as −35%. In addition, the “change in 177Lu-AMBA binding (GRP receptor specific signal per cell), PC-3” value in test [3] was determined as 0%. In test [4], the “change in 177Lu-AMBA binding (GRP receptor specific signal per cell), BT-474” value is given as −73%.
For the compound `CC(C)(C#N)c1cc(Cn2cncn2)cc(C(C)(C)C#N)c1` [anastrozole], the “decrease in 177Lu-AMBA binding (GRP receptor specific signal per cell)” value in test [2] (T-47D) and in test [3] (setting [5]) was “up to 10%” in each case. Further, the “GRP receptor specific signal per cell (177Lu-AMBA binding) versus untreated controls, in words” value in test [4] (BT-474) is listed as “no change”.
On to `CC(C)C[C@H](NC(=O)[C@H](Cc1ccccc1)NC(=O)c1cnccn1)B(O)O` [bortezomib], for which the “decrease in 177Lu-AMBA binding (GRP receptor specific signal per cell)” value in test [2] (T-47D) is reported as “up to 50%”; in test [3] (setting [5]), “up to 60%”; in test [4] (BT-474), “up to 50%”.
Consider `C#Cc1cccc(Nc2ncnc3cc(OCCOC)c(OCCOC)cc23)c1` [erlotinib], for which the “increase in 177Lu-AMBA binding (GRP receptor specific signal per cell)” value in test [2] (T-47D) is recorded as 5-20%. In test [3] (setting [5]), the “decrease in 177Lu-AMBA binding (GRP receptor specific signal per cell)” value is listed as 5-20%. The “GRP receptor specific signal per cell (177Lu-AMBA binding) versus untreated controls, in words” value in test [4] (BT-474) is listed as “no change”.
For `COc1cc2ncnc(Nc3ccc(F)c(Cl)c3)c2cc1OCCCN1CCOCC1` [gefitinib], the “increase in 177Lu-AMBA binding (GRP receptor specific signal per cell)” value in test [2] (T-47D) is listed as “up to 20%”. The “decrease in 177Lu-AMBA binding (GRP receptor specific signal per cell)” value in test [3] (setting [5]) is reported as 20-40%. In test [4] (BT-474), the “GRP receptor specific signal per cell (177Lu-AMBA binding) versus untreated controls, in words” value is “no change”.
For `Cc1ccc(NC(=O)c2ccc(CN3CCN(C)CC3)cc2)cc1Nc1nccc(-c2cccnc2)n1` [imatinib], in that order: “up to 15%”, 15-25% and “no change”.
Consider `CS(=O)(=O)CCNCc1ccc(-c2ccc3ncnc(Nc4ccc(OCc5cccc(F)c5)c(Cl)c4)c3c2)o1` [lapatinib], for which the “decrease in cell proliferation” value in test [2] (T-47D, at the highest concentration) was ≤ 35%; in test [4] (BT-474, at the highest concentration), ≤ 65%. Moreover, the “increase in 177Lu-AMBA binding (GRP receptor specific signal per cell)” value in test [2] (T-47D) was “up to 50%”. In addition, the “proliferation versus untreated controls, in words” value in test [3] (PC-3, 0.1-1.0 μM) is listed as “no change”. For the same compound, the “GRP receptor specific signal per cell (177Lu-AMBA binding) versus untreated controls, in words” value in test [3] (PC-3) is given as “no change”.
`CNC(=O)c1cc(Oc2ccc(NC(=O)Nc3ccc(Cl)c(C(F)(F)F)c3)cc2)ccn1` [sorafenib]: the “GRP receptor specific signal per cell (177Lu-AMBA binding) versus untreated controls, in words” value in test [2] (T-47D) was “no change”. For the same compound, the “change in 177Lu-AMBA uptake on a viable cell basis, T47D” value in test [2] (Table 24, drug 0.1-1.0 μM (gefitinib 0.1-10, bortezomib 0.001-0.1), vs untreated control) is on record as “NC (NC: Little (<10%) or no change in Lu-AMBA uptake)”. Further, the results for the “decrease in 177Lu-AMBA binding (GRP receptor specific signal per cell)” value in test [3] (setting [5]) and in test [4] (BT-474) were 10-20% and 10-25%, respectively.
With `CCN(CC)CCNC(=O)c1c(C)[nH]c(/C=C2\C(=O)Nc3ccc(F)cc32)c1C` [sunitinib], the “increase in 177Lu-AMBA binding (GRP receptor specific signal per cell)” value in test [2] (T-47D) is given as “up to 13%”; in test [3] (PC-3, relative to untreated control, drug 0.1-1.0 μM), “up to 10%”. Moreover, the “decrease in 177Lu-AMBA binding (GRP receptor specific signal per cell)” value in test [4] (BT-474) is “up to 8%”.
In the case of `C[C@]12CC[C@@H]3c4ccc(O)cc4CC[C@H]3[C@@H]1CC[C@@H]2O` [β2-estradiol], the “GRP receptor specific signal per cell (177Lu-AMBA binding) versus untreated controls, in words” value in test [2] (T-47D) was “did not change”; in test [3] (PC-3), “no change”. The “change in 177Lu-AMBA binding (GRP receptor specific signal per cell), T47D” value in test [2] was found to be 0%. Besides, the “change in 177Lu-AMBA binding (GRP receptor specific signal per cell), PC-3” value in test [3] stood at 0%. Moreover, the “change in 177Lu-AMBA binding (GRP receptor specific signal per cell), BT-474” value in test [4] is recorded as 47%.
Consider “DO3A-monoamide-8-amino-octanoic acid-BBN (7-14)”, for which, in the test on PC3 cells, the “Internalisation (40 minutes)” value was found to be 89% and the “Efflux (2 h)” value is listed as 28%.
For the compound “N-[4-[[[[4,7,10-Tris(carboxymethyl)-1,4,7,10-tetraazacyclododec-1-yl]acetyl]glycyl]amino]-3-methoxybenzoyl]-L-glutaminyl-L-tryptophyl-1-alanyl-L-valyl-glycyl-L-histidyl-L-leucyl-L-methioninamide [Compound L240]”, the “receptor subtype preference (GRP-R versus NMB-R)” value at NMB-R is on record as “selective affinity to GRP-R”.
As for “N-[4-[[[[[4,7,10-Tris(carboxymethyl)-1,4,7,10-tetraazacyclododec-1-yl]acetyl]amino]acetyl]amino]benzoyl]-L-glutaminyl-L-tryptophyl-L-alanyl-L-valyl-glycyl-L-histidyl-L-leucyl-L-methioninamide [Compound L70]”, in the test on PC3 cells, the “Internalisation (40 minutes)” value was found to be 70% and the “Efflux (2 h)” value was found to be 12%. In addition, in test [1], the “survival, Short Term Efficacy Study” value is listed as “increased survival” and the “survival, Long Term Efficacy Study” value is “significantly increased survival”.

(Values after patent US20130136691A1, “GASTRIN […] PEPTIDE COMPOUNDS” (priority 2008, published 2013).)
